Assays:
ykt6 = test: Measurement of farnesyl-ykt6 in SH-SY5Y cells; assay type: cell-based, human; conditions: SH-SY5Y cells expressing GFP-ykt6; 10 nM FTI, 48 hours
Procedure: FIGS. 14A, 14B, 14C, 14D, 14E, 14F, and 14G. The effects of FTI treatment on ykt6 and lysosomes. 14A) Farnesylation of ykt6 was measured in SH-SY5Y cells expressing GFP-ykt6. Cells treated with or without FTI (LNK-754) were cultured with farnesyl-azide to label farnesyl-modified proteins, immunoprecipitated with GFPaffinity beads, and then conjugated with phosphine-biotin. Biotin was detected with streptavidin-conjugated IRDye800, and normalized to total levels of GFP-ykt6. See methods for details. […] 14B) Membrane shift analysis of SH-SY5Y cells stably expressing GFP-ykt6-CS, treated with 5 nM FTI. Calnexin (CNX) and Coomassie blue (CBB) were used as a loading controls. 14C) Gel filtration/western blot analysis of FTI treated A53T iPSn. Ykt6 complex levels eluting at ca. 120A were quantified on the right (n=2). […] 14E) Raw quantification data of LAMP2A immunofluorescence intensity of individual cells from H4 cells treated with FTI, +/−ykt6 KD. Each data point represents LAMP2A intensity from individual cells, from 3 different culture wells. 14F) Analysis of ER-Golgi trafficking of GCase by endo H resistance after treatment with FTI in SH-SY5Y cells overexpressing wt a-syn (n=3). 14G) Western blot analysis of Triton X-100 soluble a-syn in SH-SY5Y wt a-syn cells after treatment with various concentrations of FTI for 5 days. For all quantifications, values are the mean+/−SEM, *p<0.05. […]

a-syn = test: Sequential extraction/western blot of a-syn in FTI-treated A53T iPSn; assay type: cell-based, human; conditions: 5 nM, 7d
Procedure: FIGS. 6A, 6B, 6C, 6D, 6E, 6F, and 6G. FTIs enhance lysosomal GCase activity and reduce pathological a-syn by blocking ykt6 farnesylation. 6A) GCase activity in FTI-treated A53T iPSn at d80 (LNK-754 5 nM, 5d). 6B) GCase activity in FTI-treated A53T iPSn expressing empty vector (vect) or ykt6-CS (n=4). 6C) Lysosomal GCase activity was assessed in FTI-treated SHSY5Y cells transfected with scrambled or ykt6 shRNA (KD) (n=3). 6D) Quantification of Triton X-100 soluble (T-sol) a-syn by western blot from FTI-treated A53T iPSn (5 nM, 7d). *, non-specific band. (n=3). 6E) Quantification of insoluble a-syn from A53T iPSn as in D (n=3). 6F) Insoluble a-syn in FTI-treated H4 cells (5 nM, 5 days) transfected with either scrambled or ykt6 shRNA (n=6). 6G) Neuron viability was assessed in FTI-treated A53T iPSn (5 nM, 14d from d86-d100) by quantification of neurofilament protein. Right, neuron viability in FTI-treated A53T iPSn expressing empty vector or ykt6-CS (n=4). Values are the mean+/−SEM, *p<0.05, **p<0.01, ***p<0.001.
Sequential biochemical extraction for the analysis of pathological a-synuclein. […] Protein concentration was measured by BCA assay (Pierce). […]
Western blot analysis. […] The blots were washed as before and scanned/analyzed using an Odyssey infrared imaging system with Image Studio Software. […]

C#Cc1cccc(-c2cc(=O)n(C)c3ccc([C@](O)(c4ccc(Cl)cc4)c4cncn4C)cc23)c1 [LNK-754]
reduction of the farnesyl-ykt6 signal (ykt6): 40%
soluble and insoluble levels of a-syn (C20, syn303) (a-syn): reduced

Source: patent US12226410B2, “Methods for enhancing cellular clearance of pathological molecules via activation of the cellular protein ykt6” (NORTHWESTERN UNIVERSITY, priority 2019, dated 2025)
